{"source": "patent US12084472B2", "about": "(Ardelyx, Inc., priority 2015, dated 2024)"}
{"target": "T1, human TGR5 (Homo sapiens, UniProt Q8TDU6)", "T1 construct": "expressed in transfected cells; host or cells: HEK293", "T1 sequence (Q8TDU6 1-330)": "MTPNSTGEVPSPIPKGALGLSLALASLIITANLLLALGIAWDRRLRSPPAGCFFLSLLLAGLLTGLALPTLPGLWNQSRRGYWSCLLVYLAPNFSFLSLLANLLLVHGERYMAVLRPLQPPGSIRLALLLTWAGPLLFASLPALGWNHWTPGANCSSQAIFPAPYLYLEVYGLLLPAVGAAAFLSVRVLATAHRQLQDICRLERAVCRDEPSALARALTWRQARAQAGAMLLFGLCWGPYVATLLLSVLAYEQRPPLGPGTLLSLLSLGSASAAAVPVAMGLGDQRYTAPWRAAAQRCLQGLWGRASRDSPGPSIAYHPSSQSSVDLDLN", "assay": "Cell-based TGR5 assay (cAMP generation, HTRF)", "conditions": "HEK293 cells stably transfected with human TGR5; cAMP by HTRF; 30 minutes at 37° C.; read-out: pEC50 Human TGR5 (converted)", "in_short": "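First, compounds in 3-fold serial dilution were placed in HBSS with 10 mM HEPES pH 7.4 and 0.5 mM IBMX. Next, human TGR5-expressing HEK293 cells were added and incubated 30 min at 37° C. Finally, cAMP was detected by HTRF and pEC50 derived by logistic fitting.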", "units": {"EC50": "nM"}}
{"smiles": "O=C(NC[C@H](O)[C@@H](O)[C@H](O)[C@H](O)CO)N[C@@H](CCCCNS(=O)(=O)c1ccc(COC2(c3cnccc3-c3ccccc3OC3CC3)CC2)c(Cl)c1)C(=O)O", "note": "[Compound I-485, (S)-6-(3-chloro-4-((1-(4-(2-cyclopropoxyphenyl)pyridine-3-yl)cyclopropoxy)methyl)phenylsulfonamido)-2-(3-((2S,3R,4R,5R)-2,3,4,5,6-pentahydroxyhexyl)ureido) hexanoic acid]", "EC50": "< 100"}
{"smiles": "CC(=O)NCCCCN(CCCSc1ccc(Cl)c(CNC2(c3cnccc3-c3ccccc3OC3CC3)CC2)c1)C(=O)[C@@H](O)[C@@H](O)[C@H](O)[C@@H](O)CO", "note": "[Compound I-602, (2S,3S,4R,5S)-N-[3-({4-chloro-3-[({1-[4-(2-cyclopropoxyphenyl)pyridin-3-yl]cyclopropyl}amino)methyl]phenyl}sulfanyl)propyl]-N-(4-acetamidobutyl)-2,3,4,5,6-pentahydroxyhexanamide]", "EC50": "126 to 1000"}
{"smiles": "CC(CCCC(=O)N(CCCS(C)(=O)=O)C[C@H](O)[C@@H](O)[C@H](O)[C@H](O)CO)c1ccc(Cl)c(CNC2(c3cnccc3-c3ccccc3OC3CC3)CC2)c1", "note": "(stereo partly drawn) [Compound I-347, 5-{4-chloro-3-[({1-[4-(2-cyclopropoxyphenyl)pyridin-3-yl]cyclopropyl}amino)methyl]phenyl}-N-(3-methanesulfonylpropyl)-N-[(2S,3R,4R,5R)-2,3,4,5,6-pentahydroxyhexyl]hexanamide]", "EC50": "< 100"}
{"smiles": "CN(C[C@H](O)[C@@H](O)[C@H](O)[C@H](O)CO)C(=O)CC1CN(S(=O)(=O)c2ccc(Cl)c(COC3(c4cnccc4-c4ccccc4OC4CC4)CC3)c2)C1", "note": "[Compound I-447, 2-{1-[4-chloro-3-({1-[4-(2-cyclopropoxyphenyl)pyridin-3-yl]cyclopropoxy}methyl)benzenesulfonyl]azetidin-3-yl}-N-methyl-N-[(2S,3R,4R,5R)-2,3,4,5,6-pentahydroxyhexyl]acetamide]", "EC50": "< 100"}
{"smiles": "CC(CCCC(=O)N(C[C@@H](O)[C@H](O)[C@@H](O)[C@@H](O)CO)[C@H]1CC[C@@H](O)CC1)c1ccc(Cl)c(CNC2(c3cnccc3-c3ccccc3OC3CC3)CC2)c1", "note": "(stereo partly drawn) [Compound I-343, 5-{4-chloro-3-[({1-[4-(2-cyclopropoxyphenyl)pyridin-3-yl]cyclopropyl}amino)methyl]phenyl}-N-[(2R,3S,4S,5S)-2,3,4,5,6-pentahydroxyhexyl]-N-[(1s,4s)-4-hydroxycyclohexyl]hexanamide]", "EC50": "< 100"}
{"smiles": "O=C(NC[C@H](O)[C@@H](O)[C@H](O)[C@H](O)CO)NC1CCN(C(=O)CCCCc2cc(Cl)c(COC3(c4cnccc4-c4ccccc4OC4CC4)CC3)cc2Cl)CC1", "note": "(stereo in doubt) [Compound I-158, 1-(1-{5-[2,5-dichloro-4-({1-[4-(2-cyclopropoxyphenyl)pyridin-3-yl]cyclopropoxy}methyl)phenyl]pentanoyl}piperidin-4-yl)-3-[(2S,3R,4R,5R)-2,3,4,5,6-pentahydroxyhexyl]urea]", "EC50": "< 100"}
{"smiles": "CC(C)N(CCCCNC(=O)NC[C@H](O)[C@@H](O)[C@H](O)[C@H](O)CO)S(=O)(=O)c1ccc(Cl)c(COC2(c3cnccc3-c3ccccc3OC3CC3)CC2)c1", "note": "[Compound I-391, 3-[(2S,3R,4R,5R)-2,3,4,5,6-pentahydroxyhexyl]-1-[4-[N-(propan-2-yl)[4-chloro-3-([1-[4-(2-cyclopropoxyphenyl)pyridin-3-yl]cyclopropoxy]methyl)benzene]sulfonamido]butyl]urea]", "EC50": "< 100"}
{"smiles": "CC(CCCCC(=O)NC[C@H](O)[C@@H](O)[C@H](O)[C@H](O)CO)c1ccc(Cl)c(CNC2(c3cnccc3-c3ccccc3OC3CC3)CC2)c1", "note": "(stereo partly drawn) [Compound I-317, 6-{4-chloro-3-[({1-[4-(2-cyclopropoxyphenyl)pyridin-3-yl]cyclopropyl}amino)methyl]phenyl}-N-[(2S,3R,4R,5R)-2,3,4,5,6-pentahydroxyhexyl]heptanamide]", "EC50": "< 100"}
{"smiles": "O=C(CCCCCNS(=O)(=O)c1ccc(Cl)c(COC2(c3cnccc3-c3ccccc3OC3CC3)CC2)c1)NC[C@H](O)[C@@H](O)[C@H](O)[C@H](O)CO", "note": "[Compound I-431, 6-[4-chloro-3-({1-[4-(2-cyclopropoxyphenyl)pyridin-3-yl]cyclopropoxy}methyl)benzenesulfonamido]-N-[(2S,3R,4R,5R)-2,3,4,5,6-pentahydroxyhexyl]hexanamide]", "EC50": "< 100"}
{"smiles": "O=C([C@@H](O)[C@@H](O)[C@H](O)[C@@H](O)CO)N(CCCSc1ccc(Cl)c(CNC2(c3cnccc3-c3ccccc3OC3CC3)CC2)c1)CCOCCO", "note": "[Compound I-526, (2S,3S,4R,5S)-N-[3-({4-chloro-3-[({1-[4-(2-cyclopropoxyphenyl)pyridin-3-yl]cyclopropyl}amino)methyl]phenyl}sulfanyl)propyl]-2,3,4,5,6-pentahydroxy-N-[2-(2-hydroxyethoxy)ethyl]hexanamide]", "EC50": "126 to 1000"}
{"smiles": "O=C(COCC1CCN(S(=O)(=O)c2ccc(Cl)c(COC3(c4cnccc4-c4ccccc4OC4CC4)CC3)c2)C1)NC[C@H](O)[C@@H](O)[C@H](O)[C@H](O)CO", "note": "(stereo partly drawn) [Compound I-455, 2-({1-[4-chloro-3-({1-[4-(2-cyclopropoxyphenyl)pyridin-3-yl]cyclopropoxy}methyl)benzenesulfonyl]pyrrolidin-3-yl}methoxy)-N-[(2S,3R,4R,5R)-2,3,4,5,6-pentahydroxyhexyl]acetamide]", "EC50": "< 100"}
{"smiles": "CS(=O)(=O)CCN(CCCCSc1ccc(Cl)c(COC2(c3cnccc3-c3ccccc3OC3CC3)CC2)c1)C[C@H](O)[C@@H](O)[C@H](O)[C@H](O)CO", "note": "[Compound I-613, (2R,3R,4R,5S)-6-[(4-{[4-chloro-3-({1-[4-(2-cyclopropoxyphenyl)pyridin-3-yl]cyclopropoxy}methyl)phenyl]sulfanyl}butyl)(2-methanesulfonylethyl)amino]hexane-1,2,3,4,5-pentol]", "EC50": "< 100"}
{"smiles": "CSc1ccccc1-c1ccncc1C1(NCc2cc(Cl)ccc2Cl)CC1", "note": "[Compound I-7, N-[(2,5-dichlorophenyl)methyl]-1-{4-[2-(methylsulfanyl)phenyl]pyridin-3-yl}cyclopropan-1-amine]", "EC50": "126 to 1000"}
{"smiles": "CCC(OCc1cc(Cl)ccc1Cl)c1cnccc1-c1ccccc1OC1CC1", "note": "(stereo not drawn) [Compound I-779, 4-(2-cyclopropoxyphenyl)-3-(1-((2,5-dichlorobenzyl)oxy)propyl)pyridine]", "EC50": "1260 to 10000"}
{"smiles": "Cc1ccc(CCCCNC(=O)NC[C@H](O)[C@@H](O)[C@H](O)[C@H](O)CO)cc1COC1(c2cnccc2-c2ccccc2OC2CC2)CC1", "note": "[Compound I-239, 1-{4-[3-({1-[4-(2-cyclopropoxyphenyl)pyridin-3-yl]cyclopropoxy}methyl)-4-methylphenyl]butyl}-3-[(2S,3R,4R,5R)-2,3,4,5,6-pentahydroxyhexyl]urea]", "EC50": "126 to 1000"}
{"smiles": "CN(C[C@H](O)[C@@H](O)[C@H](O)[C@H](O)CO)C(=O)CCSc1ccc(Cl)c(CNC2(c3cnccc3-c3ccccc3OC3CC3)CC2)c1", "note": "[Compound I-676, 3-({4-chloro-3-[({1-[4-(2-cyclopropoxyphenyl)pyridin-3-yl]cyclopropyl}amino)methyl]phenyl}sulfanyl)-N-methyl-N-[(2S,3R,4R,5R)-2,3,4,5,6-pentahydroxyhexyl]propanamide]", "EC50": "< 100"}
{"smiles": "O=C(NC[C@H](O)[C@@H](O)[C@H](O)[C@H](O)CO)N[C@H]1CC[C@H](NS(=O)(=O)c2ccc(Cl)c(COC3(c4cnccc4-c4ccccc4OC4CC4)CC3)c2)CC1", "note": "[Compound I-418, 3-[(2S,3R,4R,5R)-2,3,4,5,6-pentahydroxyhexyl]-1-[(1r,4r)-4-[4-chloro-3-({l-[4-(2-cyclopropoxyphenyl)pyridin-3-yl]cyclopropoxy}methyl)benzenesulfonamido]cyclohexyl]urea]", "EC50": "< 100"}
{"smiles": "O=C(CCCCc1cc(Cl)c(COC2(c3cnccc3-c3ccccc3OC3CC3)CC2)cc1Cl)N[C@@H](CN1CCOCC1)[C@@H](O)[C@H](O)[C@H](O)CO", "note": "(stereo in doubt) [Compound I-160, 5-[2,5-dichloro-4-({1-[4-(2-cyclopropoxyphenyl)pyridin-3-yl]cyclopropoxy}methyl)phenyl]-N-[(2S,3R,4S,5R)-3,4,5,6-tetrahydroxy-1-(morpholin-4-yl)hexan-2-yl]pentanamide]", "EC50": "< 100"}
{"smiles": "CC(CCCC(=O)N(CC(=O)N(C)C)C[C@H](O)[C@@H](O)[C@H](O)[C@H](O)CO)c1ccc(Cl)c(CNC2(c3cnccc3-c3ccccc3OC3CC3)CC2)c1", "note": "(stereo partly drawn) [Compound I-340, 5-{4-chloro-3-[({1-[4-(2-cyclopropoxyphenyl)pyridin-3-yl]cyclopropyl}amino)methyl]phenyl}-N-[(dimethylcarbamoyl)methyl]-N-[(2S,3R,4R,5R)-2,3,4,5,6-pentahydroxyhexyl]hexanamide]", "EC50": "126 to 1000"}
{"smiles": "O=C([C@@H](O)[C@@H](O)[C@H](O)[C@@H](O)CO)N(CCCCSc1ccc(Cl)c(COC2(c3cnccc3-c3ccccc3OC3CC3)CC2)c1)C1CCOCC1", "note": "[Compound I-514, (2S,3S,4R,5S)-N-(4-{[4-chloro-3-({1-[4-(2-cyclopropoxyphenyl)pyridin-3-yl]cyclopropoxy}methyl)phenyl]sulfanyl}butyl)-2,3,4,5,6-pentahydroxy-N-(oxan-4-yl)hexanamide]", "EC50": "< 100"}
{"smiles": "O=C(NC[C@H](O)[C@@H](O)[C@H](O)[C@H](O)CO)NC1CC2(CCN(S(=O)(=O)c3ccc(Cl)c(COC4(c5cnccc5-c5ccccc5OC5CC5)CC4)c3)CC2)C1", "note": "[Compound I-428, 1-{7-[4-chloro-3-({1-[4-(2-cyclopropoxyphenyl)pyridin-3-yl]cyclopropoxy}methyl)benzenesulfonyl]-7-azaspiro[3.5]nonan-2-yl}-3-[(2S,3R,4R,5R)-2,3,4,5,6-pentahydroxyhexyl]urea]", "EC50": "126 to 1000"}
